Results taken from publication PMC6965684, “Characterization of binding, functional activity, and contractile responses of the selective 5‐HT1F receptor agonist lasmiditan” (British Journal of Pharmacology, 2019).
Counter-ions that a name gives are not always drawn. Like-named read-outs stand apart in the source and are kept apart here.

Experiments:
5-HT1A receptor [1] = biological target: T1, 5-HT1A receptor (Homo sapiens, UniProt P08908); test: cell-based; design: species or system CHO-K1; cAMP HTRF agonist assay, Gi coupled receptors, inhibition of stimulated cAMP; conditions: cAMP
T1 construct: gene HTR1A; full-length human recombinant receptor in CHO-K1 cells (Ogeda); crude membranes
T1 sequence (P08908 1-422): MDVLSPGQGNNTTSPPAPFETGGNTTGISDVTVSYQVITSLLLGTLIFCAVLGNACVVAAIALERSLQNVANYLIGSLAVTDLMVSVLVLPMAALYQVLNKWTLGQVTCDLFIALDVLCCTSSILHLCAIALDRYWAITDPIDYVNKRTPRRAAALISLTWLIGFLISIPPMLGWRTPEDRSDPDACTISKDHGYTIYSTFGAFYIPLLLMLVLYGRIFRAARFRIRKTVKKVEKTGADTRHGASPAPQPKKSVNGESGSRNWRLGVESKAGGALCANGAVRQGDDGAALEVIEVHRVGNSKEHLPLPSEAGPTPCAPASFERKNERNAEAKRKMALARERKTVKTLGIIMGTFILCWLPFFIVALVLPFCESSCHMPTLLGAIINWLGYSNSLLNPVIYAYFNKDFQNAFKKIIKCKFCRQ
Procedure: Concentration–response curves were performed in parallel with the agonists. […] After addition of the lysis buffer and 1‐hr incubation, cAMP concentrations were estimated according to the manufacturer specification with the HTRF kit (Cisbio International, Codelet, France). In brief, increasing concentrations of agonists were added to stably transfected cells in buffer in an Optiplate (PerkinElmer Life Sciences, Massachusetts, USA). The plates were incubated, and cells were then lysed by the addition of HTRF reagents (cAMP‐Cryptate and anti‐cAMP‐d2 reagents) and diluted in lysis buffer, followed by incubation at room temperature. […] Additionally, the reference values obtained were compared to historical values obtained from the same receptor and used to validate the experimental session. […] For the new assays developed in this study (i.e., 5‐ht1E receptor), the two independent pIC50 determined must be concordant with a 1 log unit interval for the assays to be validated.

5-HT1A receptor [2] = biological target: T1, 5-HT1A receptor; test: biochemical; type: CHO-K1 membranes; design: radioligand competition binding on cell membranes, filtration and TopCount scintillation counting; conditions: radioligand displacement; read-out: 5‐HT1A / pIC50 (converted)
Procedure: (§1) Competition binding was performed in duplicate in the wells of a 96‐well plate containing binding buffer (optimized for each receptor), cell membrane extracts (approximately 20,000 cells distributed in the 96‐well plate), radiotracer, and test agonist. Non‐specific binding was determined by co‐incubation with 200‐fold excess of competitor. Cells were incubated and exposed to varying concentrations (1 pM to 10 μM) of a range of displacer agonists (see below). The samples were incubated in a final volume of 0.1 ml and then filtered over Unifilter plates (Perkin Elmer, Massachusetts, USA) pretreated for 2 hr to limit tracer non‐specific binding. Filters were washed five times with 0.5 ml of ice‐cold washing buffer (tris 50 mM pH 7.4) and 50 μl of Microscint 20 (Perkin Elmer) were added to each filter. The plates were incubated 15 min at room temperature on an orbital shaker and then counted with a TopCount™ (Perkin Elmer) for 1 min per well. […] Additionally, the reference values obtained were compared to historical values obtained from the same receptor and used to validate the experimental session. […] For the new assays developed in this study (i.e., 5‐ht1E receptor), the two independent pIC50 determined must be concordant with a 1 log unit interval for the assays to be validated.

5-HT1A receptor [3] = biological target: T1, 5-HT1A receptor; test: biochemical; type: CHO-K1 membranes; design: GTPγS agonist functional assay; conditions: GTPγS
Text: Additionally, the reference values obtained were compared to historical values obtained from the same receptor and used to validate the experimental session. […] For the new assays developed in this study (i.e., 5‐ht1E receptor), the two independent pIC50 determined must be concordant with a 1 log unit interval for the assays to be validated.

5-HT2A receptor [4] = biological target: T2, 5-HT2A receptor (Homo sapiens, UniProt P28223); test: biochemical; type: CHO-K1 membranes; design: radioligand competition binding on cell membranes, filtration and TopCount scintillation counting; conditions: for Ki: read-out: 5‐HT2A / pKi (converted)
T2 construct: gene HTR2A; full-length human recombinant receptor in CHO-K1 cells (Ogeda); crude membranes
Procedure: as §1, with “validated. […]” for “validated.”

5-HT2A receptor [5] = biological target: T2, 5-HT2A receptor; test: cell-based; design: species or system CHO-K1; IPOne HTRF agonist assay, IP1 accumulation in adherent transfected cells
Procedure: The assay was performed on adherent cells. For agonist testing, the medium was removed and 20 μl of assay buffer plus 20 μl of the studied agonist or the reference agonist were added in each well. The plate was incubated for 60 min at 37°C with 5% CO2. IP1‐D2 reagent and anti‐IP1 cryptate reagents were dispensed in the wells, and IP1 concentrations were then measured following the manufacturer instructions (IPOne HTRF assay kit; Cisbio International, Codolet, France). In brief, increasing concentrations of agonists were added to stably transfected cells in buffer in an Optiplate (PerkinElmer Life Sciences). The plates were incubated, and cells were then lysed by the addition of HTRF reagents (IP1‐D2 reagent and anti‐IP1 cryptate reagents) and diluted in lysis buffer, followed by incubation at room temperature. […] Additionally, the reference values obtained were compared to historical values obtained from the same receptor and used to validate the experimental session. […] For the new assays developed in this study (i.e., 5‐ht1E receptor), the two independent pIC50 determined must be concordant with a 1 log unit interval for the assays to be validated. […]

[6] = radioligand displacement, read-out: 5‐HT2A / pIC50 (converted)
[7] = IP, read-out: 5‐HT2A / IP (converted)

T2 sequence (P28223 whole entry): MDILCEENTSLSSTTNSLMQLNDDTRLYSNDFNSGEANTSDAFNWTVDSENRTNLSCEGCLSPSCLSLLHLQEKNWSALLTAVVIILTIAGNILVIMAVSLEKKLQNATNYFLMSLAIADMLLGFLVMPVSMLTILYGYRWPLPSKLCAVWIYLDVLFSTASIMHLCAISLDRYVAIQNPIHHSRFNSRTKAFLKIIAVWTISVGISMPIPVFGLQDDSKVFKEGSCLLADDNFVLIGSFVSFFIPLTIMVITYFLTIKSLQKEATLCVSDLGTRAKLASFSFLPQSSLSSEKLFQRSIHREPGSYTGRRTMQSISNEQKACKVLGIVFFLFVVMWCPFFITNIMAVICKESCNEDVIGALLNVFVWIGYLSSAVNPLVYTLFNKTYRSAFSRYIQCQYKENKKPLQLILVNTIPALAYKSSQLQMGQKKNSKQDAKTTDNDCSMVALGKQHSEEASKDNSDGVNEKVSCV

Row | SMILES | EC50 (5-HT1A receptor [1]) | IC50 (5-HT1A receptor [2]) | EC50 (5-HT1A receptor [3]) | IC50 (5-HT2A receptor [4]; [6]) | Ki (5-HT2A receptor [4]; radioligand displacement) | EC50 (5-HT2A receptor [5]; [7]) | IC50 (5-HT2A receptor [4]) | EC50 (5-HT2A receptor [5])
1 | CNC1CCc2[nH]c3ccc(C(N)=O)cc3c2C1 (racemic) [Frovatriptan racemate] | > 10000 nM | 148 nM | 759 nM | > 10000 nM | > 10000 nM | > 10000 nM | – | –
2 | CNS(=O)(=O)Cc1ccc2[nH]cc(CCCN3CCN(c4ncncc4OC)CC3)c2c1 [Avitriptan fumarate] | > 10000 nM | 63.1 nM | 646 nM | 7760 nM | – | 123 nM | – | –
3 | N#Cc1ccc(N2CCN(C(=O)COc3ccc4[nH]cc(CCN)c4c3)CC2)cc1 [Donitriptan hydrochloride] | 1150 nM | 38 nM | 182 nM | 1480 nM | – | 7.94 nM | – | –
4 | CN1CCC[C@@H]1Cc1c[nH]c2ccc(CCS(=O)(=O)c3ccccc3)cc12 [Eletriptan hydrobromide] | 1820 nM | 6.31 nM | 417 nM | 3800 nM | – | 851 nM | – | –
5 | CN(C)[C@@H]1CCc2[nH]c3ccc(NC(=O)c4ccc(F)cc4)cc3c2C1 [LY344864 hydrochloride] | > 10000 nM | 759 nM | > 10000 nM | – | – | – | 7760 nM | > 10000 nM
6 | CNS(=O)(=O)CCc1ccc2[nH]cc(C3CCN(C)CC3)c2c1 [Naratriptan hydrochloride] | > 10000 nM | 49 nM | 302 nM | > 10000 nM | > 10000 nM | > 10000 nM | – | –
